Source: publication PMC10518255, “A first-in-class pan-lysyl oxidase inhibitor impairs stromal remodeling and enhances gemcitabine response and survival in pancreatic cancer” (Nature Cancer, 2023)
Several values for one entry are separate records, joined by “and”; a condition that tells them apart may be missing. Equal values may be shown once.

How the values were obtained:
[1] = target: T1, bovine aorta extracted LOX (Bos taurus, UniProt P33072); test: Substrate competition assay versus putrescine dihydrochloride, amplex red (Extended Data Fig. 3b); type: biochemical
T1 construct: performed in an amplex red assay using bovine aorta extracted LOX; from tissue; host or cells: bovine aorta
T1 sequence (P33072 170-418): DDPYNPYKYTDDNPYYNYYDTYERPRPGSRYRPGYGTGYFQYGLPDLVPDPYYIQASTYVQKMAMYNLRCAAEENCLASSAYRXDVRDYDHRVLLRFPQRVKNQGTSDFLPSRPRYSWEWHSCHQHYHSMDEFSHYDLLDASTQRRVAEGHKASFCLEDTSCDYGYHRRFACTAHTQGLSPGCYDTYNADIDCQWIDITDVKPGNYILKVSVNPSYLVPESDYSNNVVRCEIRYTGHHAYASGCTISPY
Description: Similar to other fluoroallylamine-based amine oxidase inhibitors, the mode of inhibition is assumed to be a two-step mechanism (Fig. 2c), with PXS-5505 reacting with the unique LTQ cofactor found within the active site. The fluoroallylamine facilitates the formation of a covalent, irreversible bond. […] Furthermore, in jump dilution experiments, there is no significant recovery of activity following rapid dilution (LOXL1 (5 ± 5% recovery, n = 4), LOXL2 (7 ± 1.2% recovery, n = 3) and LOXL3 (11 ± 2% recovery, n = 3)).
(§1) Data presented as mean values +/− SD. f. […] Data presented as mean values +/− SD. […] Data presented as mean values +/− SD. […] Data presented as mean values +/− SD. Ordinary one-way ANOVA for multiple comparison test performed. Source data

[2] = Tolerability in mouse PDAC models; type: in vivo; settings: >6 months
Description: In our KPC mouse and human PDX in vivo models of PDAC, PXS-5505 reduces collagen deposition and tumor stiffness and improves perfusion of agents into the primary tumor site. […] These in vivo findings match the in vitro organotypic data showing reductions in local invasion. Furthermore, addition of PXS-5505 to gemcitabine treatment extends median survival in the KPC model by approximately 45% and decreases metastatic deposits within the liver compared to gemcitabine alone.

KPC CCs = test: 3D cell viability assay (MTS, collagen); type: cell-based, mouse; settings: for 3D cell viability (MTS assay): KPC CC, replicates
Procedure: (§2) The 3D cell viability assays were performed using cells embedded into polymerized collagen at 2.5 mg ml^−1. KPC CAFs and CCs were seeded at 10,000 cells per well in a 96-well plate. MTS solution (Promega) was added to the cells at a 1:20 dilution and cells were incubated at 37 °C for 1.5 h. Cell proliferation rates were measured by detecting the absorbance at 490 nm using a microplate reader and three biological repeats were performed.
as §1

[3] = 3D cell viability assay (MTS, collagen); type: cell-based, mouse; settings: mouse, replicates
Procedure: as §2, §1

KPC CAFs = test: 3D cell viability assay (MTS, collagen); type: cell-based, mouse; settings: for 3D cell viability (MTS assay): replicates
Procedure: as §2, §1

Recombinant LOXL-1 = target: T2, Recombinant LOXL-1 (Homo sapiens, UniProt Q08397); test: Lysyl oxidase enzymatic activity, fluorescence-based assay, IC50; type: biochemical
T2 sequence (Q08397 96-574): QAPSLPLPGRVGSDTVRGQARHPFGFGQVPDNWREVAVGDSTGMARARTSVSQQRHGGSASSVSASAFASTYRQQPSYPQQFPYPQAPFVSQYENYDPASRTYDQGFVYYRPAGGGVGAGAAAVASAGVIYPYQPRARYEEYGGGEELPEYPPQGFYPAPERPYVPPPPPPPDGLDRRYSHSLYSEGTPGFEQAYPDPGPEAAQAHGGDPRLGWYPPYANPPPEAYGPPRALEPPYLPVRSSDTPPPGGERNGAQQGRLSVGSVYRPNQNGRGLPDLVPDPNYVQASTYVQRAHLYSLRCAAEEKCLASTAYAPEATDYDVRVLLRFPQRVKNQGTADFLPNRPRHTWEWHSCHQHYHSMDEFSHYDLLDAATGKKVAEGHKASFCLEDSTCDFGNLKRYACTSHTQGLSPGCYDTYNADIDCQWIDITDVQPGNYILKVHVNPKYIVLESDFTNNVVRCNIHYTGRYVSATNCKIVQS
Description: Data are presented as mean ± s.d. […] Data presented as mean ± s.d. […] Source data TEXT PRINTED IN THE PICTURE: (b) PXS-5505: Recombinant DAO IC50 (nM): >30,000; Recombinant SSAO/VAP1 IC50 (nM): >30,000; Recombinant MAO-A IC50 (nM): >30,000; Recombinant MAO-B IC50 (nM): >30,000 | (f) PXS-5505: Fibroblast LOX IC50 (nM): 4,930; Recombinant LOXL-1 IC50 (nM): 1,590; Recombinant LOXL-2 IC50 (nM): 570; Recombinant LOXL-3 IC50 (nM): 1,800; Recombinant LOXL-4 IC50 (nM): 190
In characterizing PXS-5505, the half-maximum inhibitory concentration (IC50) values for each of the lysyl oxidase family members were determined by measuring enzymatic activity using a fluorescence-based assay. […]

[4] = Plasma concentration profile after oral PXS-5505 30 mg/kg (Extended Data Fig. 3f); type: in vivo, mice; settings: for Plasma concentration: mice, individual replicates

Q: What does the source list for `Cl.Cl.NC/C=C(\F)CS(=O)(=O)c1cccc2cccnc12.O` [PXS-5505, (Z)-3-fluoro-4-(quinolin-8-ylsulfonyl)but-2-en-1-amine dihydrochloride monohydrate]?
A: substrate competition [1]: substrate competition; adverse side effects in mouse PDAC models [2]: no adverse side effects; 3D cell viability (MTS assay) (KPC CCs; PXS-5505 0.3 (unit not given)): 101.864 and 94.0126; 3D cell viability (MTS assay) (KPC CCs; PXS-5505 3 (unit not given)): 104.713 and 92.4708; 3D cell viability (MTS assay) (KPC CCs; PXS-5505 30 (unit not given)): 96.3592 and 91.3434; 3D cell viability (MTS assay) (KPC CCs; PXS-5505 100 (unit not given)): 92.997 and 88.536; 3D cell viability (MTS assay) (KPC CCs; PXS-5505 300 (unit not given)): 102.736 and 92.2188 and 80.3582; effect on proliferation, 3D (KPC CCs; KPC CCs, up to 300 µM): nor did it show any effect on proliferation; viability ([3]; KPC CAFs embedded in polymerized collagen (3D), PXS-5505 3 (unit inferred)): 97.2%; viability ([3]; KPC CAFs embedded in polymerized collagen (3D), PXS-5505 30 (unit inferred)): 87.5%; viability ([3]; KPC CAFs embedded in polymerized collagen (3D), PXS-5505 100 (unit inferred)): 99%; viability ([3]; KPC cancer cells (CCs) embedded in polymerized collagen (3D), KPC CC, PXS-5505 0.3 (unit inferred)): 97.5%; viability ([3]; KPC cancer cells (CCs) embedded in polymerized collagen (3D), KPC CC, PXS-5505 3 (unit inferred)): 108%; viability ([3]; KPC cancer cells (CCs) embedded in polymerized collagen (3D), KPC CC, PXS-5505 30 (unit inferred)): 100%; viability ([3]; KPC cancer cells (CCs) embedded in polymerized collagen (3D), KPC CC, PXS-5505 100 (unit inferred)): 96.7%; 3D cell viability (MTS assay) (KPC CAFs; PXS-5505 0.3 (unit not given)): 102.654 and 114.604 and 89.88; 3D cell viability (MTS assay) (KPC CAFs; PXS-5505 3 (unit not given)): 96.8872 and 86.2796; 3D cell viability (MTS assay) (KPC CAFs; PXS-5505 30 (unit not given)): 93.0804 and 86.6488; 3D cell viability (MTS assay) (KPC CAFs; PXS-5505 100 (unit not given)): 93.525 and 85.922; 3D cell viability (MTS assay) (KPC CAFs; PXS-5505 300 (unit not given)): 102.9 and 101.619 and 82.2294; effect on proliferation, 3D (KPC CAFs; up to 300 µM): nor did it show any effect on proliferation; IC50 (Recombinant LOXL-1): 1.59 µM; LOXL1 activity, IC50 determination curve (Recombinant LOXL-1; log(Concentration) -4.52288, replicates, 30 µM): -0.3767 and 0.3431 and 4.322; LOXL1 activity, IC50 determination curve (Recombinant LOXL-1; log(Concentration) -5, replicates, 10 µM): 5.837; LOXL1 activity, IC50 determination curve (Recombinant LOXL-1; log(Concentration) -5.47712, replicates, 3.333 µM): 31.2503 and 31.9336; LOXL1 activity, IC50 determination curve (Recombinant LOXL-1; log(Concentration) -5.95424, replicates, 1.111 µM): 60.6166 and 67.4565; LOXL1 activity, IC50 determination curve (Recombinant LOXL-1; log(Concentration) -6.43136, replicates, 0.3704 µM): 85.3221 and 90.5851; LOXL1 activity, IC50 determination curve (Recombinant LOXL-1; log(Concentration) -6.90849, replicates, 0.1235 µM): 93.09 and 98.6783; LOXL1 activity, IC50 determination curve (Recombinant LOXL-1; log(Concentration) -7.38561, replicates, 0.04115 µM): 99.6453 and 102.919; LOXL1 activity, IC50 determination curve (Recombinant LOXL-1; log(Concentration) -7.86273, replicates, 0.01372 µM): 100.176 and 100.944; LOXL1 activity, IC50 determination curve (Recombinant LOXL-1; log(Concentration) -8.33985, replicates, 0.004572 µM): 101.83 and 104.276; LOXL1 activity, IC50 determination curve (Recombinant LOXL-1; log(Concentration) -8.81697, replicates, 0.001524 µM): 107.666 and 104.748; LOXL1 activity, IC50 determination curve (Recombinant LOXL-1; log(Concentration) -9.29409, replicates, 0.000508 µM): 100.744 and 106.953; activity at 10 µM (Recombinant LOXL-1; read-out: LOXL1 activity, IC50 determination curve, log(Concentration) -5, replicates): 4.51%; activity at 3.333 µM (Recombinant LOXL-1; read-out: LOXL1 activity, IC50 determination curve, log(Concentration) -5.47712, replicates): 20.9%; activity at 1.111 µM (Recombinant LOXL-1; read-out: LOXL1 activity, IC50 determination curve, log(Concentration) -5.95424, replicates): 63.8%; activity at 0.3704 µM (Recombinant LOXL-1; read-out: LOXL1 activity, IC50 determination curve, log(Concentration) -6.43136, replicates): 85%; activity at 0.1235 µM (Recombinant LOXL-1; read-out: LOXL1 activity, IC50 determination curve, log(Concentration) -6.90849, replicates): 94.6%; activity at 0.04115 µM (Recombinant LOXL-1; read-out: LOXL1 activity, IC50 determination curve, log(Concentration) -7.38561, replicates): 99.8%; activity at 0.01372 µM (Recombinant LOXL-1; read-out: LOXL1 activity, IC50 determination curve, log(Concentration) -7.86273, replicates): 100%; activity at 0.004572 µM (Recombinant LOXL-1; read-out: LOXL1 activity, IC50 determination curve, log(Concentration) -8.33985, replicates): 101%; activity at 0.001524 µM (Recombinant LOXL-1; read-out: LOXL1 activity, IC50 determination curve, log(Concentration) -8.81697, replicates): 101%; activity at 0.000508 µM (Recombinant LOXL-1; read-out: LOXL1 activity, IC50 determination curve, log(Concentration) -9.29409, replicates): 102%; Plasma concentration ([4]; oral 5 mg/kg, time 0.5 hrs, 5 mg/kg): 424 and 270.3 and 246.9; Plasma concentration ([4]; oral 5 mg/kg, time 1 hrs, 5 mg/kg): 183.1 and 190 and 142.6; Plasma concentration ([4]; oral 5 mg/kg, time 2 hrs, 5 mg/kg): 40.1 and 93 and 39.5; Plasma concentration ([4]; oral 5 mg/kg, time 4 hrs, 5 mg/kg): 10.2 and 13.8 and 3.1; Plasma concentration ([4]; oral 5 mg/kg, time 8 hrs, 5 mg/kg): 3.2 and 2.1 and 1.3; Plasma concentration ([4]; oral 10 mg/kg, time 0.5 hrs, 10 mg/kg): 1283.4 and 374.2 and 656.3; Plasma concentration ([4]; oral 10 mg/kg, time 1 hrs, 10 mg/kg): 814.4 and 337 and 493.5; Plasma concentration ([4]; oral 10 mg/kg, time 2 hrs, 10 mg/kg): 138.5 and 336.7 and 262.8; Plasma concentration ([4]; oral 10 mg/kg, time 4 hrs, 10 mg/kg): 113.3 and 25.7 and 30.1; Plasma concentration ([4]; oral 10 mg/kg, time 8 hrs, 10 mg/kg): 14.4 and 5.9 and 4.9; Plasma concentration ([4]; oral 30 mg/kg, time 0.5 hrs, 30 mg/kg): 3584.3 and 3445.6 and 4112.8; Plasma concentration ([4]; oral 30 mg/kg, time 1 hrs, 30 mg/kg): 3340.5 and 2725.9 and 2974.4; Plasma concentration ([4]; oral 30 mg/kg, time 2 hrs, 30 mg/kg): 1379.4 and 1690.4 and 1354.7; Plasma concentration ([4]; oral 30 mg/kg, time 4 hrs, 30 mg/kg): 160.9 and 186.3 and 206.9; Plasma concentration ([4]; oral 30 mg/kg, time 8 hrs, 30 mg/kg): 13.1 and 14.5 and 13.6; half-life ([4]; mouse, plasma, single oral dose 30 mg kg−1, read-out: calculated half-life (plasma) (converted)): 1 h
